Consider ten compounds from patent US11993610B2, “BCL-2 inhibitors” (Newave Pharmaceutical Inc., priority 2017, dated 2024).

One data set is described as follows: Mice PK study. The data set is classed as in vivo. As to conditions: po, 10 mg/kg, CD-1 mouse; for AUC / bioavailability / half-life: plasma; for bioavailability: read-out: Bioavailabilty; for half-life: read-out: t½ (converted). As to the method:
The pharmacokinetics of compounds were evaluated in CD-1 mouse via Intravenous and Oral Administration. The IV dose was administered as a slow bolus in the Jugular vein, and oral doses were administered by gavage. The formulation for IV dosing is 5% DMSO in 20% HPBCD in water, and the PO formulation is 2.5% DMSO, 10% EtOH, 20% Cremphor EL, 67.5% D5W. The PK time point for the IV arm was 5, 15, 30 min, 1, 2, 4, 6, 8, 12, 24 hours post dose, and for PO arm was 15, 30 min, 1, 2, 4, 6, 8, 12, 24 hours post dose. Approximately 0.03 mL blood was collected at each time point. Blood of each sample was transferred into plastic micro centrifuge tubes containing EDTA-K2 and plasma was collected within 15 min by centrifugation at 4000 g for 5 minutes in a 4′C centrifuge. Plasma samples were stored in polypropylene tubes. The samples were stored in a freezer at −75±15° C. prior to analysis. Concentrations of compounds in the plasma samples were analyzed using a LC-MS/MS method. WinNonlin (Phoenix™, version 6.1) or other similar software was used for pharmacokinetic calculations. The following pharmacokinetic parameters were calculated, whenever possible from the plasma concentration versus time data: IV administration: C0, CL, Vd, T1/2, AUCinf, AUClast, MRT, Number of Points for Regression; PO administration: Cmax, Tmax, T1/2, AUCinf, AUClast, F %, Number of Points for Regression. The pharmacokinetic data was described using descriptive statistics such as mean, standard deviation. Additional pharmacokinetic or statistical analysis was performed at the discretion of the contributing scientist, and was documented in the data summary.

The next data set has as its system RS4; 11. As to the kind of experiment: In vitro anti-proliferation assay (ATPlite) in BCL-2-dependent ALL cell line RS4; 11. The format is cell-based. As to the method:
Cell antiproliferation was assayed by PerkinElmer ATPlite™ Luminescence Assay System. Briefly, the various test cancer cell lines were plated at a density of about 1×10^4 cells per well in Costar 96-well plates, and were incubated with different concentrations of compounds for about 72 hours in medium supplemented with 5% FBS or 10% normal human serum (NHS). One lyophilized substrate solution vial was then reconstituted by adding 5 mL of substrate buffer solution, and was agitated gently until the solution is homogeneous. About 50 μL of mammalian cell lysis solution was added to 100 μL of cell suspension per well of a microplate, and the plate was shaken for about five minutes in an orbital shaker at ˜700 rpm. This procedure was used to lyse the cells and to stabilize the ATP. Next, 50 μL substrate solution was added to the wells and microplate was shaken for five minutes in an orbital shaker at ˜700 rpm. Finally, the luminescence was measured by a PerkinElmer TopCount® Microplate Scintillation Counter. Such assays, carried out with a range of doses of test compounds, allowed the determination of the cellular anti-antiproliferative IC50 of the compounds of the present invention.
In general terms: ATP-based viability assays read luminescence as a measure of living cells.

In the next data set the test system is H345 xenograft model. Conditions: 100 mg/kg/day; cited from earlier work.
The subject of data set [1] is xenograft models of small-cell lung cancer and acute lymphoblastic leukemia. As to conditions: oral administration, alone; cited from earlier work.
A further data set concerns circulating platelets. As to conditions: clinical trial; cited from earlier work.
The conditions of data set [2]: cited from earlier work.
The test system of data set [3] is BCL-2-dependent acute lymphoblastic leukemia RS4; 11 xenograft model. As to the kind of experiment: In vivo RS4; 11 xenograft study. Set-up: species or system CB.17 SCID mice. Conditions: for BW Nadir / Tumor volume: po. The source says: The CB.17 SCID mice were obtained at age 6-8 weeks from vendors and acclimated for a minimum 7-day period. The cancer cells were then implanted into the […] mice. Depending on the specific tumor type, tumors were typically detectable about two weeks following implantation. When tumor sizes reached ˜100-200 mm^3, the animals with appreciable tumor size and shape were randomly assigned into groups of 8 mice each, including one vehicle control group and treatment groups. Dosing varies depending on the purpose and length of each study, which typically proceeded for about 3-4 weeks. Tumor sizes and body weight were typically measured three times per week. In addition to the determination of tumor size changes, the last tumor measurement was used to generate the tumor size change ratio (T/C value), a standard metric developed by the National Cancer Institute for xenograft tumor evaluation. In most cases, % T/C values were calculated using the following formula: % T/C=100×ΔT/ΔC if ΔT>0. When tumor regression occurred (ΔT<0), however, the following formula was used: % T/T0=100×ΔT/T0.

Where [4] appears, read: Homo sapiens, RS4-11, 72 h, read-out: IC50, RS4, 11 5% FBS, about 72 hours, another study.
Where [5] appears, read: Homo sapiens, RS4-11, 72 h, read-out: IC50, RS4, 11 5% FBS, about 72 hours, first study.

In general, AUC refers to concentration integrated over time. Read a low AUC as less exposure. The IC50 is the concentration that inhibits the measured activity by half. By TGI is commonly meant the reduction of tumour growth relative to the control group. As usually defined, the t½ is the time needed for the level to fall by half in the phase considered.

Read-outs that look alike come from different tables or passages of the source.

Take `CC1(C)CCC(CN2CCN(c3ccc(C(=O)NS(=O)(=O)c4ccc(NCC5(F)CCOCC5)c([N+](=O)[O-])c4)c(N4CC(C)(C)Oc5nc6[nH]ccc6cc54)c3)CC2)=C(c2ccc(Cl)cc2)C1` [Example 7, 4-(4-((4′-chloro-5,5-dimethyl-3,4,5,6-tetrahydro-[1,1′-biphenyl]-2-yl)methyl)piperazin-1-yl)-2-(3,3-dimethyl-2,3-dihydropyrrolo[3′,2′:5,6]pyrido[2,3-b][1,4]oxazin-1(6H)-yl)-N-((4-(((4-fluorotetrahydro-2H-pyran-4-yl)methyl)amino)-3-nitrophenyl)sulfonyl)benzamide]: in the data set “Mice PK study”, the AUC stood at 11000 ng·h/mL, the bioavailability was determined as 90% and the half-life was 3.2 h. For the same compound, the IC50 in the data set with RS4; 11 (setting [4]) worked out at 5.6 nM.
As for `C[C@H]1CN(c2cc(N3CCN(CC4=C(c5ccc(Cl)cc5)CC(C)(C)CC4)CC3)ccc2C(=O)NS(=O)(=O)c2ccc(NCC3(F)CCOCC3)c([N+](=O)[O-])c2)c2cc3cc[nH]c3nc2O1` [Example 6 (S), (S)-4-(4-((4′-chloro-5,5-dimethyl-3,4,5,6-tetrahydro-[1,1′-biphenyl]-2-yl)methyl)piperazin-1-yl)-N-((4-(((4-fluorotetrahydro-2H-pyran-4-yl)methyl)amino)-3-nitrophenyl)sulfonyl)-2-(3-methyl-2,3-dihydropyrrolo[3′,2′:5,6]pyrido[2,3-b][1,4]oxazin-1(6H)-yl)benzamide], in “Mice PK study”, the AUC was 12100 ng·h/mL and the bioavailability was determined as 74%. In addition, in the data set with RS4; 11 (setting [4]), the IC50 was determined as 3.2 nM.
Consider `CC1(C)CCC(c2ccc(Cl)cc2)=C(CN2CCN(c3ccc(C(=O)NS(=O)(=O)c4ccc(N[C@H](CCN5CCOCC5)CSc5ccccc5)c(S(=O)(=O)C(F)(F)F)c4)cc3)CC2)C1` [ABT-263], for which, in the data set with H345 xenograft model, the TGI is 80% and the “treated tumors indicating at least a 50% reduction in tumor volume” value was 20%. In addition, in data set [1], the tumor regressions entry was “complete tumor regressions”. For the same compound, in the data set on circulating platelets, the “number of circulating platelets” value is “rapid, concentration-dependent decrease in the number of circulating platelets”.
As for `C[C@H]1CN(c2cc(N3CCN(CC4=C(c5ccc(Cl)cc5)CC(C)(C)CC4)CC3)ccc2C(=O)NS(=O)(=O)c2ccc(NCC3CCOCC3)c([N+](=O)[O-])c2)c2cc3cc[nH]c3nc2O1` [Example 9, (S)-4-(4-((4′-chloro-5,5-dimethyl-3,4,5,6-tetrahydro-[1,1′-biphenyl]-2-yl)methyl)piperazin-1-yl)-2-(3-methyl-2,3-dihydropyrrolo[3′,2′:5,6]pyrido[2,3-b][1,4]oxazin-1(6H)-yl)-N-((3-nitro-4-(((tetrahydro-2H-pyran-4-yl)methyl)amino)phenyl)sulfonyl)benzamide], in the data set “Mice PK study”, the AUC came to 19900 ng·h/mL and the half-life is 4.1 h.
Regarding `CC1(C)CCC(CN2CCN(c3ccc(C(=O)NS(=O)(=O)c4ccc(NCC5CCOCC5)c([N+](=O)[O-])c4)c(N4CCOc5nc6[nH]ccc6cc54)c3)CC2)=C(c2ccc(Cl)cc2)C1` [Example 2 (NW-4-8), 4-(4-[[2-(4-chlorophenyl)-4,4-dimethylcyclohex-1-en-1-yl]methyl]piperazin-1-yl)-N-([3-nitro-4-[(oxan-4-ylmethyl)amino]benzene]sulfonyl)-2-[13-oxa-2,4,10-triazatricyclo[7.4.0.0^[3,7]]trideca-1,3(7),5,8-tetraen-10-yl]benzamide], in “Mice PK study”, the “AUC(h * ng/mL)” value was 10,365 h * ng/mL, the Bioavailabilty is on record as 68% and the “t½” value is 2.7 h. The IC50 in the data set with RS4; 11 (read-out: IC50, RS4, 11 5% FBS, about 72 hours, first study) was 4.8 nM.
With `CN(C)CC[C@H](CSc1ccccc1)Nc1ccc(S(=O)(=O)NC(=O)c2ccc(N3CCN(Cc4ccccc4-c4ccc(Cl)cc4)CC3)cc2)cc1[N+](=O)[O-]` [ABT-737], the aqueous solubility result in data set [2] is on record as “low”.
For `C[C@@H]1CN(c2cc(N3CCN(CC4=C(c5ccc(Cl)cc5)CC(C)(C)CC4)CC3)ccc2C(=O)NS(=O)(=O)c2ccc(NCC3CCOCC3)c([N+](=O)[O-])c2)c2cc3cc[nH]c3nc2O1` [Example 10, (R)-4-(4-((4′-chloro-5,5-dimethyl-3,4,5,6-tetrahydro-[1,1′-biphenyl]-2-yl)methyl)piperazin-1-yl)-2-(3-methyl-2,3-dihydropyrrolo[3′,2′:5,6]pyrido[2,3-b][1,4]oxazin-1(6H)-yl)-N-((3-nitro-4-(((tetrahydro-2H-pyran-4-yl)methyl)amino)phenyl)sulfonyl)benzamide], in “Mice PK study”, the AUC is 35000 ng·h/mL, the bioavailability stood at 78% and the half-life is 4.1 h.
Turning to `CC1(C)CCC(CN2CCN(c3ccc(C(=O)NS(=O)(=O)c4ccc(NCC5(F)CCOCC5)c([N+](=O)[O-])c4)c(N4CCOc5nc6[nH]ccc6cc54)c3)CC2)=C(c2ccc(Cl)cc2)C1` [Example 3, 4-(4-((4′-chloro-5,5-dimethyl-3,4,5,6-tetrahydro-[1,1′-biphenyl]-2-yl)methyl)piperazin-1-yl)-2-(2,3-dihydropyrrolo[3′,2′:5,6]pyrido[2,3-b][1,4]oxazin-1(6H)-yl)-N-((4-(((4-fluorotetrahydro-2H-pyran-4-yl)methyl)amino)-3-nitrophenyl)sulfonyl)benzamide], the “BW Nadir” value in data set [3] (25 mg/kg, qd × 7) is −3.60%; in data set [3] (50 mg/kg, qd × 7), −2.90%; in data set [3] (100 mg/kg, qd × 7), −2.10%. Further, the Tumor volume turned out to be 368 mm^3 in data set [3] (25 mg/kg, qd × 7); 26 mm^3 in data set [3] (50 mg/kg, qd × 7); 0 mm^3 in data set [3] (100 mg/kg, qd × 7). Also, the tumor regression entry in data set [3] (100 mg/kg, day 18) is reported as “complete regression of the tumor”. Further, in data set [3] (7 doses (qd × 7), 25-100 mg/kg po), the “effect on tumor growth” value is “dose-dependent reduction of tumor growth”. Moreover, the IC50 came to 1.4 nM in the data set with RS4; 11 (setting [4]) and 2.6 nM in the data set with RS4; 11 (setting [5]).
As for `CC1(C)CCC(CN2CCN(c3ccc(C(=O)NS(=O)(=O)c4ccc(NCC5CCOCC5)c([N+](=O)[O-])c4)c(Oc4cnc5[nH]ccc5c4)c3)CC2)=C(c2ccc(Cl)cc2)C1` [ABT-199, reference compound], the “BW Nadir” value in data set [3] (50 mg/kg, qd × 7) is listed as −3.60%. Also, the Tumor volume in data set [3] (50 mg/kg, qd × 7) is listed as 0 mm^3; in data set [3] (50 mg/kg, qd × 21) it was 17.4 mm^3. Moreover, the IC50 in the data set with RS4; 11 (setting [5]) was found to be 5.5 nM.
Turning to `C[C@@H]1CN(c2cc(N3CCN(CC4=C(c5ccc(Cl)cc5)CC(C)(C)CC4)CC3)ccc2C(=O)NS(=O)(=O)c2ccc(NCC3(F)CCOCC3)c([N+](=O)[O-])c2)c2cc3cc[nH]c3nc2O1` [Example 6 (R), (R)-4-(4-((4′-chloro-5,5-dimethyl-3,4,5,6-tetrahydro-[1,1′-biphenyl]-2-yl)methyl)piperazin-1-yl)-N-((4-(((4-fluorotetrahydro-2H-pyran-4-yl)methyl)amino)-3-nitrophenyl)sulfonyl)-2-(3-methyl-2,3-dihydropyrrolo[3′,2′:5,6]pyrido[2,3-b][1,4]oxazin-1(6H)-yl)benzamide], in the data set “Mice PK study”, the AUC stood at 16100 ng·h/mL and the half-life is 3.2 h. For the same compound, the IC50 in the data set on RS4; 11 (setting [4]) came to 1.3 nM.
